In patent US10383926B2, “Biological markers useful in cancer immunotherapy” (GEMVAX & KAEL CO., LTD., priority 2013, dated 2019):

Experiments:
[1] = test system: locally advanced and metastatic pancreatic cancer; assay: Survival analysis, TeloVac Phase III trial; format: in vivo, human; conditions: 1062 patients, 52 centres
Description: The TeloVac trial recruited 1062 patients in 52 centres throughout the UK. […] Importantly, biomarkers for an increased survival in response to the vaccine were identified in a subgroup of patients.
(§1) The TeloVac trial, was initiated in January 2007 comparing combination therapy with Gemcitabine and Capecitabine (GemCap) therapy with concurrent and sequential chemo-immunotherapy using GV1001 in locally advanced and metastatic pancreatic cancer.
(§2) After this, GV1001 was administered once monthly. GM-CSF was administered separately as an intradermal injection 10-15 minutes before all GV1001 injections at the approximately same site.

26 cytokines in serum = assay: Luminex multiplex inflammatory cytokine analysis of patient serum (TeloVac trial); format: in vivo, human
Description: as §1, §2
Cytokine Results: The Kruskal-Wallis comparison of Arm 2 and Arm 3 baseline (i.e. before treatment) with arm 2 week 7 (GemCap) with Arm 3 week 10 (GemCap and GV1001) serum samples are shown in table 1 below.
Paired analysis was carried out for: • Arm 2 patients at baseline and following 7 weeks of GemCap treatment. • Arm 3 patients at baseline and following 10 weeks of GemCap and GV1001 treatment.

HLA class II molecules = conditions: cited from earlier work
[2] = test system: advanced pancreatic and pulmonary cancer patients; conditions: cited from earlier work

## EARPALLTSRLRFIPK (listed as Homo sapiens) [GV1001, 16-mer peptide, fragment of the human telomerase enzyme]
[1]
  overall survival versus control group receiving chemotherapy: no significant difference in overall survival
26 cytokines in serum; TeloVac translational research
  anti-inflammatory response: significant anti-inflammatory response
26 cytokines in serum; human, in vivo
  regulation of serum levels of eotaxin or MIP1α: did not appear that treatment with GV1001 could regulate
26 cytokines in serum; serum, paired analysis
  change of serum cytokine levels, pre-treatment compared to post treatment: this decrease was not evident
HLA class II molecules
  HLA binding: binds multiple HLA class II molecules
[2]
  GV1001-specific T-cell responses, subjects: > 50%
  toxicity: without clinically important toxicity
